Experimental data reported in the supplement of paper PMC10949913.

Key:
Assay in all cases: area under concentration-response curve (viability) (AUC (a.u.)); higher = less active
Conditions in all cases: 48 h
CU-ACC1 = tested on: CU-ACC1
In short: (§1)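 Three adrenocortical carcinoma cell lines were exposed for 48 h to library compounds at 11 concentrations in 1,536-well plates, then read by CellTiter-Glo luminescence. Signals were scaled per plate against vehicle and empty-well controls. From fitted concentration-response curves of inhibitory or non-responding classes alone, AC50 and area under the curve were obtained.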

CU-ACC2 = tested on: CU-ACC2
In short: as §1

NCI-H295R = tested on: NCI-H295R
In short: as §1

SMILES | area under concentration-response curve (CU-ACC1) | area under concentration-response curve (CU-ACC2) | area under concentration-response curve (NCI-H295R)
C#C[C@]1(O)CC[C@H]2[C@@H]3CCc4cc(O)ccc4[C@H]3CC[C@@]21C | 525 | 611 | 538
C[N]1C=C(C=N1)C2=C3\C=N/NC(=O)C4=C3C(=CC(=C4)NC(=O)[C@H](N)C5CCCCC5)[NH]2 | 530 | 594 | 555
CCCNC(=O)Nc1ccc(Oc2ncnc3cc(OC)c(OC)cc23)cc1Cl | 332 | 383 | 400
O=C(O)CNC(=O)c1ncc(-c2cccc(Cl)c2)cc1O | 486 | 568 | 516
Cc1ccsc1C(=CCCN1CCC[C@@H](C(=O)O)C1)c1sccc1C | 488 | 593 | 541
CC(C(=O)O)c1ccc2c(c1)CC(=O)c1ccccc1S2 (configuration not stated) | 535 | 554 | 497
NC1=NC(=C(C#N)C(=N1)N)N[C@@H](C2CC2)\C3=N\C4=C(C(=CC=C4F)Cl)C(=O)N3C5=CC=CN=C5 | 511 | 570 | 526
CC(=O)Nc1nc(C)c(-c2ccc(Cl)c([S+](=O)([O-])NCCO)c2)s1 | 385 | 566 | 531
O=C(NCC(=O)N1CCCC1)Nc1ccc2cnccc2c1 | 565 | 633 | 569
CN(C)[C@H]\1[C@@H]2C[C@@H]\3CC4=C(C(=C(NC(=O)CNC(C)(C)C)C=C4N(C)C)O)C(=O)C3=C(O)/[C@@]2(O)C(=O)\C(=C1O)C(N)=O | 380 | 452 | 379
C[C@@H]1C(=O)OC2[C@H](O)[C@]34[C@H]5C[C@@H](C(C)(C)C)[C@]36[C@@H](OC(=O)[C@@H]6O)O[C@@]4(C(=O)O5)[C@]21O (some centres not stated) | 463 | 556 | 532
CC(NC1=NC=NC2=C1[NH]C=N2)\C3=C\C4=C(C(=CC=C4)Cl)C(=O)N3C5=CC=CC=C5 (configuration not stated) | 432 | 569 | 580
Clc1ccc2c(N3CCN(CCCN4CCN(c5ccnc6cc(Cl)ccc56)CC4)CC3)ccnc2c1 | 433 | 450 | 451
NC(=O)OCC(COC(N)=O)c1ccccc1 | 497 | 554 | 460
COC[C@@H](NC(C)=O)C(=O)NCc1ccccc1 | 503 | 619 | 560
CC[C@H](C)C(=O)O[C@H]1C[C@@H](C)\C=C2\C=C/[C@H](C)[C@H](CC[C@@H]3C[C@@H](O)CC(=O)O3)[C@@H]12 | 576 | 647 | 576
C[C@]12C[C@H](O)[C@H]3[C@@H](CC\C4=C\C(=O)\C=C/[C@]34C)[C@@H]1CC[C@]2(O)C(=O)CO | 496 | 590 | 545
N#Cc1ccc(Cn2cncc2CN2CCN(c3cccc(Cl)c3)C(=O)C2)cc1 | 520 | 578 | 514
N=C1S/C(=C\c2ccc(-c3ccc4c(c3)C(=O)NC4=O)o2)C(=O)N1c1ccc(Br)cc1 | 563 | 675 | 618
